The source of these data is patent US7279473B2, “Pyrazolopyridazine derivatives” (SmithKline Beecham Corporation, priority 2001, dated 2007).

Assay [1] has as its system chemotherapy-induced alopecia. Kind of assay: Neonatal rat model of chemotherapy-induced alopecia. Type of assay: in vivo, Sprague Dawley rats. Conditions: compounds in 100% DMSO applied topically to the scalp prior to chemotherapy; scored at day 21. An excerpt: Animal Model for Chemoprotection
Neonatal rat model of chemotherapy-induced alopecia: Time-pregnant female Sprague Dawley rats were purchased from Charles River Breeding Laboratories. Rat pups born on the same day were randomized at birth to 15 or 16 pups/mom/cage and were housed with moms during the study period. Each experimental group consisted of either 5 or 8 rats. For the etoposide model of CIA, rat pups received etoposide (VePesid, Bristol Laboratories Oncology Products, Princeton, N.J.) 6 mg/kg, ip, at 13 days of age (23). […] Compounds were formulated in 100% DMSO and applied topically to the scalp, 50 μL per application. Pups were treated with two topical applications of compounds 10 hours and 4 hours (t=−10, −4 hours) on both days 12 and 13 prior to chemotherapy administration. Pups were separated from mom during the topical application dosing period to prevent grooming and removal of compound. […] Inhibitor efficacy data was analyzed by comparing the % of drug-treated responders and the % of vehicle-treated responders. The amount of hair present on rat scalp at day 21 were scored and averaged for each inhibitor treated rat and ranked as +, ++ and +++.

Assay [2] deals with Cyclin D1 and cyclin-dependent kinase 4 (CDK4) (Homo sapiens, UniProt P11802). Put plainly: CDK4 substrate phosphorylation assay (phosphorylation of GST-Rb protein, [33P]-ATP). It is filed as biochemical. Conditions: read-out: CDK4 inhibition. As for the experimental part:
The compounds of the present invention have valuable pharmacologic properties. Different compounds from this class are particularly effective at inhibiting CDK2 and/or CDK4 enzymes at concentrations, which range from 0.0001 to 1 μM and additionally show specificity relative to other kinases. Substrate phosphorylation assays were carried out as follows.
Cyclin D1 and cyclin-dependent kinase 4 were expressed utilizing a baculovirus expression system. The catalytic activity of CDK4 protein was assayed by measuring the phosphorylation of Rb protein. A truncated Rb protein (residues 773-928 of the native retinoblastoma protein, fused to glutathione S-transferase to facilitate purification) was used as the phosphoryl acceptor. The assay conditions were 100 mM HEPES (N-[2-hydroxyethyl]piperzine-N′-[2-ethanesulfonic acid]), pH 7.5, 0.5 μM GST-Rb protein, 1 μCi/mL [^33P]-ATP (1 nM-20 μM), 5-20 mM MgCl2, 2.5 mM EDTA, 1 mM dithiothreitol, 0.2 mg/mL bovine serum albumin, 2% (v/v) dimethyl sulfoxide (DMSO), CDK4 enzyme (5-50 nM) in a final volume of 50 μL Reactions were incubated for time periods of 10-60 min at 30° C. and terminated by the addition of 50 μL quench (1 mM ATP/100 mM EDTA, pH 7.0). Detection of protein phosphorylation was accomplished by scintillation counting following collection of protein in 96 well plates coated with Glutathione or trapping of protein onto phosphocellulose filters. Counts detected by these methodologies minus the appropriate background were assumed to be proportional to the reaction initial rates. […] IC50s were determined by a least squares fit to the equation CPM=Vmax*(1-([I]/(K+[I])))+nsb, or pIC50s were determined by a fit to the equation CPM=nsb+(Vmax−nsb)/(1+(x/10^x−pIC50)), where nsb are the background counts.

For a further assay, the target named is CDK2 (Homo sapiens, UniProt P24941). Put plainly: CDK2 substrate phosphorylation assay (biotinylated peptide, [g-32P]ATP). Conditions: read-out: CDK2 inhibition. Type of assay: biochemical.

Chain of Cyclin D1 and cyclin-dependent kinase 4 (CDK4) (P11802 whole entry, species assumed): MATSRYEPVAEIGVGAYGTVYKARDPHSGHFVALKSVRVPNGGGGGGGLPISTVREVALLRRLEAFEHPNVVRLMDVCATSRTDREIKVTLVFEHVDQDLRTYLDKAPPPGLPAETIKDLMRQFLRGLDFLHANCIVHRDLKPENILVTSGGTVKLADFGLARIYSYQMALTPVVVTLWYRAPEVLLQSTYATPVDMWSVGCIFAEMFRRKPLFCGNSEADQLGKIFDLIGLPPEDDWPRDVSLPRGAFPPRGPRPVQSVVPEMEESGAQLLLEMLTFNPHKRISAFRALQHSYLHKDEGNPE
Chain of Cyclin D1 and cyclin-dependent kinase 4 (CDK4) (P24385 whole entry partner, species assumed): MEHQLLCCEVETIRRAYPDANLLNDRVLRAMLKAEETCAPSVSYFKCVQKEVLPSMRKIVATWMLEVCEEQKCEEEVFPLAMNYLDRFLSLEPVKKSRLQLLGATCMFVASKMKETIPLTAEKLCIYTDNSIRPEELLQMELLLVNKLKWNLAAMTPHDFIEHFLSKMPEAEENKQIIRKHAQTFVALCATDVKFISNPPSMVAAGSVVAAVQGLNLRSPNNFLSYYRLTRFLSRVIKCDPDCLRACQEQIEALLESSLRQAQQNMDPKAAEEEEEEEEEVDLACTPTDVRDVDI
Experimental for CDK2: CDK2 was expressed utilizing a baculovirus expression system and was partially purified to comprise 20-80% of total protein, with no detectable competing reactions present. […] The buffer employed in enzyme assay was 100 mM HEPES pH 7.5 containing 0.1 mg/mL BSA and 5% DMSO. Inhibitors were diluted in 100% DMSO prior to addition into the assay. Detection of peptide phosphorylation was accomplished by scintillation counting following either collection of peptide onto phosphocellulose filters (for reactions stopped with acetic acid), collection of peptide in wells of 96 well plates coated with Streptavidin (Pierce) (reactions were stopped with EDTA), or addition of Avidin coated Scintillant impregnated beads (Scintillation Proximity Assays from Amersham, reactions were stopped with EDTA). […] Radioactivity was determined by liquid scintillation counting.

Regarding `COc1cc(Nc2nccc(-c3cnn4ncccc34)n2)cc(C(F)(F)F)c1` [Example 57], in assay [1], the “Rank (amount of hair present on rat scalp at day 21)” value (“Rank” below) is listed as “+”.

For the molecule `CN1CCN(c2ccc(Nc3nccc(-c4cnn5ncccc45)n3)cc2Cl)CC1` [Example 23, N-[3-Chloro-4-(4-methyl-1-piperazinyl)phenyl]-4-pyrazolo[1,5-b]pyridazin-3-yl-2-pyrimidinamine], the IC50 (in assay [2]; at CDK2) was under 100 nM in each case. Moreover, the “Rank” value in assay [1] is recorded as “+++”.

With `CN(C)c1ccc(Nc2nccc(-c3cnn4nc(N5CCOCC5)ccc34)n2)cc1` [Example 53, N-^1-N^1-Dimethly-N^4-{4-[6-(4-morpholinyl)pyrazolo[1,5-b]pyridazin-3-yl]-2-pyrimidinyl}-1,4-benzenediamine], the IC50 in assay [2] was under 100 nM; on CDK2 it was under 1000 nM.

Turning to `O=C1CCCN1CCCNc1nccc(-c2cnn3ncccc23)n1` [Example 22, 1-{3-[(Pyrazolo[1,5-b]pyridazin-3-yl-2-pyrimidinyl)amino]propyl}-2-pyrrolidinone], the IC50 (in assay [2]; at CDK2) was under 100 nM throughout.

With `Cc1cc(Nc2nccc(-c3cnn4ncccc34)n2)ccc1N1CCN(C)CC1` [Example 25, N-[3-Methyl-4-(4-methyl-1-piperazinyl)phenyl]-4-pyrazolo[1,5-b]pyridazin-3-yl-2-pyrimidinamine], the IC50 (in assay [2]; at CDK2) was under 100 nM in each case.

As to `Clc1ccc(Nc2nccc(-c3cnn4ncccc34)n2)cc1` [Example 5, N-(4-Chlorophenyl)pyrazolo[1,5-b]pyridazin-3-yl-2-pyrimidinamine], the IC50 (in assay [2]; at CDK2) was under 100 nM throughout.

On to `COc1ccc2c(-c3ccnc(NC4CC4)n3)cnn2n1` [Example 36, N-Cyclopropyl-4-(6-methoxypyrazolo[1,5-b]pyridazin-3-yl)-2-pyrimidinamine], for which the IC50 (in assay [2]; at CDK2) was under 1000 nM each time.

In the case of `NS(=O)(=O)c1ccc(Nc2nccc(-c3cnn4ncccc34)n2)cc1` [Example 62, N-(4-aminosulfonylphenyl)-4-pyrazolo[1,5-b]pyridazin-3-yl-2-pyrimidinamine], the IC50 on CDK2 is under 100 nM.

Regarding `O=[N+]([O-])c1cccc(Nc2nccc(-c3cnn4ncccc34)n2)c1` [Example 10, N-(3-Nitrophenyl)-4-pyrazolo[1,5-b]pyridazin-3-yl-2-pyrimidinamine], the IC50 (in assay [2]; at CDK2) was under 100 nM in each case.

For `N#Cc1cccc(Nc2nccc(-c3cnn4ncccc34)n2)c1` [Example 7, 3-[(4-Pyrazolo[1,5-b]pyridazin-3-yl-2-pyrimidinyl)amino]benzonitrile], the IC50 (in assay [2]; at CDK2) was under 100 nM in each case. The “Rank” value in assay [1] is listed as “+++”.

With `Clc1ccccc1-c1ccc2c(-c3ccnc(NC4CC4)n3)cnn2n1` [Example 42, 4-[6-(2-Chlorophenyl)pyrazolo[1,5-b]pyridazin-3-yl]-N-cyclopropyl-2-pyrimidinamine], the IC50 (in assay [2]; at CDK2) was under 1000 nM throughout.

In the case of `c1cnn2ncc(-c3ccnc(NC4CC4)n3)c2c1` [Example 1, N-Cyclopropyl-4-pyrazolo[1,5-b]pyridazin-3-yl-2-pyrimidinamine], the IC50 in assay [2] is under 100 nM.

For the molecule `FC(F)(F)c1cccc(Nc2nccc(-c3cnn4ncccc34)n2)c1` [Example 9, 4-Pyrazolo[1,5-b]pyridazin-3-yl-N-[3-(trifluoromethyl)phenyl]-2-pyrimidinamine], the IC50 (in assay [2]; at CDK2) was under 100 nM throughout. Moreover, in assay [1], the “Rank” value is reported as “++”.

Take `c1cc(Nc2nccc(-c3cnn4ncccc34)n2)cc(-c2cnco2)c1` [Example 14, N-[3-(1,3-Oxazol-5-yl)phenyl]-4-pyrazolo[1,5-b]pyridazin-3-yl-2-pyrimidinamine]: the IC50 (in assay [2]; on CDK2) was under 100 nM in each case. The “Rank” value in assay [1] is “+”.
